Data reported in patent US10004701B2, “Methods and compositions for treating infection” (UNIVERSITY OF ROCHESTER, priority 2012, dated 2018).
Counter-ions that a name gives are not always drawn. Like-named read-outs stand apart in the source and are kept apart here.

Tests used:
Experiment in all cases: AK assay 384-well format, Prestwick library screening
E. coli = format: cell-based, Escherichia coli; conditions: for fold induction at 50 µM: Escherichia coli, 3 h
E. faecium = format: cell-based, Enterococcus faecium; conditions: 50 μM final drug concentration; for fold induction at 50 µM: Enterococcus faecium, 3 h
[1] = tested on: A. baumannii strain 98-37-09; format: cell-based, Acinetobacter baumannii; conditions: 50 μM final drug concentration; for fold induction at 50 µM: Acinetobacter baumannii, 983709, 3 h
K. pneumoniae = format: cell-based, Klebsiella pneumoniae; conditions: 50 μM final drug concentration; for fold induction at 50 µM: Klebsiella pneumoniae, 3 h
P. aeruginosa = format: cell-based, Pseudomonas aeruginosa; conditions: 50 μM final drug concentration; for fold induction at 50 µM: Pseudomonas aeruginosa, 3 h
[2] = tested on: S. aureus strain USA300-0114; format: cell-based, Staphylococcus aureus; conditions: 50 μM final drug concentration; for fold induction at 50 µM: Staphylococcus aureus, USA300, 3 h
E. cloacae = format: cell-based, Enterobacter cloacae; conditions: 50 μM final drug concentration; for fold induction at 50 µM: Enterobacter cloacae, 3 h
[3] = 50 μM final drug concentration, 384-well format, cutoff for positive-scoring molecules 3-fold increase, read-out: AK-based Prestwick Library Screening Results, E. coli (increase in extracellular AK activity)
[4] = 384-well format, cutoff for positive-scoring molecules 3-fold increase, read-out: AK-based Prestwick Library Screening Results, E. faecium (increase in extracellular AK activity)
[5] = 384-well format, cutoff for positive-scoring molecules 3-fold increase, read-out: AK-based Prestwick Library Screening Results, A. baumannii (increase in extracellular AK activity)
[6] = 384-well format, cutoff for positive-scoring molecules 3-fold increase, read-out: AK-based Prestwick Library Screening Results, K. pneumoniae (increase in extracellular AK activity)
[7] = 384-well format, cutoff for positive-scoring molecules 3-fold increase, read-out: AK-based Prestwick Library Screening Results, P. aeruginosa (increase in extracellular AK activity)
[8] = 384-well format, cutoff for positive-scoring molecules 3-fold increase, read-out: AK-based Prestwick Library Screening Results, S. aureus (increase in extracellular AK activity)
[9] = 384-well format, cutoff for positive-scoring molecules 3-fold increase, read-out: AK-based Prestwick Library Screening Results, E. cloacae (increase in extracellular AK activity)
[10] = cutoff for positive-scoring molecules 3-fold increase, read-out: AK-based Prestwick Library Screening Results, E. faecium (fold increase in extracellular AK activity)
[11] = cutoff for positive-scoring molecules 3-fold increase, read-out: AK-based Prestwick Library Screening Results, A. baumannii (fold increase in extracellular AK activity)
[12] = cutoff for positive-scoring molecules 3-fold increase, read-out: AK-based Prestwick Library Screening Results, K. pneumoniae (fold increase in extracellular AK activity)
[13] = cutoff for positive-scoring molecules 3-fold increase, read-out: AK-based Prestwick Library Screening Results, P. aeruginosa (fold increase in extracellular AK activity)
[14] = cutoff for positive-scoring molecules 3-fold increase, read-out: AK-based Prestwick Library Screening Results, S. aureus (fold increase in extracellular AK activity)
[15] = cutoff for positive-scoring molecules 3-fold increase, read-out: AK-based Prestwick Library Screening Results, E. cloacae (fold increase in extracellular AK activity)
[16] = 50 μM final drug concentration, planktonic, cutoff for positive 3-fold increase, read-out: AK-based Prestwick Library Screening Results, E. coli (fold increase in extracellular AK activity)
[17] = planktonic, cutoff for positive 3-fold increase, read-out: AK-based Prestwick Library Screening Results, E. faecium (fold increase in extracellular AK activity)
[18] = planktonic, cutoff for positive 3-fold increase, read-out: AK-based Prestwick Library Screening Results, A. baumannii (fold increase in extracellular AK activity)
[19] = planktonic, cutoff for positive 3-fold increase, read-out: AK-based Prestwick Library Screening Results, K. pneumoniae (fold increase in extracellular AK activity)
[20] = planktonic, cutoff for positive 3-fold increase, read-out: AK-based Prestwick Library Screening Results, P. aeruginosa (fold increase in extracellular AK activity)
[21] = planktonic, cutoff for positive 3-fold increase, read-out: AK-based Prestwick Library Screening Results, S. aureus (fold increase in extracellular AK activity)
[22] = planktonic, cutoff for positive 3-fold increase, read-out: AK-based Prestwick Library Screening Results, E. cloacae (fold increase in extracellular AK activity)

With `C[C@]12C=CC(=O)C=C1CC[C@@H]1[C@@H]2C(=O)C[C@@]2(C)[C@H]1CC[C@]2(O)C(=O)CO` [Prednisone] the fold induction at 50 µM (E. coli; planktonic E. coli, 50 μM final drug concentration, 384-well, cutoff for positive-scoring molecules 3-fold increase, read-out: AK-based Prestwick Library Screening Results: E. coli (increase in extracellular AK activity)) was 1.2, the fold induction at 50 µM (E. faecium; planktonic E. faecium, 384-well, cutoff for positive-scoring molecules 3-fold increase, read-out: AK-based Prestwick Library Screening Results: E. faecium (increase in extracellular AK activity)) was 0.9 and the fold induction at 50 µM ([1]; planktonic A. baumannii, 384-well, cutoff for positive-scoring molecules 3-fold increase, read-out: AK-based Prestwick Library Screening Results: A. baumannii (increase in extracellular AK activity)) was 1.2. For the same compound, the fold induction at 50 µM (K. pneumoniae; planktonic K. pneumoniae, 384-well, cutoff for positive-scoring molecules 3-fold increase, read-out: AK-based Prestwick Library Screening Results: K. pneumoniae (increase in extracellular AK activity)) was 0.9, the fold induction at 50 µM (P. aeruginosa; planktonic P. aeruginosa, 384-well, cutoff for positive-scoring molecules 3-fold increase, read-out: AK-based Prestwick Library Screening Results: P. aeruginosa (increase in extracellular AK activity)) was 0.9 and the fold induction at 50 µM ([2]; planktonic S. aureus, 384-well, cutoff for positive-scoring molecules 3-fold increase, read-out: AK-based Prestwick Library Screening Results: S. aureus (increase in extracellular AK activity)) was 1.1. For the same compound, the fold induction at 50 µM (E. cloacae; planktonic E. cloacae, 384-well, cutoff for positive-scoring molecules 3-fold increase, read-out: AK-based Prestwick Library Screening Results: E. cloacae (increase in extracellular AK activity)) was 1.4.

In the case of `CC(=O)[C@H]1CC[C@H]2[C@@H]3CC=C4C[C@@H](O)CC[C@]4(C)[C@H]3CC[C@]12C` [Pregnenolone], the “AK-based Prestwick Library Screening Results, E. coli (fold increase in extracellular AK activity)” value (E. coli; 50 μM final drug concentration, planktonic, […]) was 1.4, the “AK-based Prestwick Library Screening Results, E. faecium (fold increase in extracellular AK activity)” value (E. faecium; planktonic, […]) was 1.1 and the “AK-based Prestwick Library Screening Results, A. baumannii (fold increase in extracellular AK activity)” value ([1]; planktonic, […]) was 1.3. For the same compound, the “AK-based Prestwick Library Screening Results, K. pneumoniae (fold increase in extracellular AK activity)” value (K. pneumoniae; planktonic, […]) was 1.1, the “AK-based Prestwick Library Screening Results, P. aeruginosa (fold increase in extracellular AK activity)” value (P. aeruginosa; planktonic, […]) was 1.1 and the “AK-based Prestwick Library Screening Results, S. aureus (fold increase in extracellular AK activity)” value ([2]; planktonic, […]) was 1.1. The “AK-based Prestwick Library Screening Results, E. cloacae (fold increase in extracellular AK activity)” value (E. cloacae; planktonic, […]) was 1.5.

Compound `CCCNC(C)C(=O)Nc1ccccc1C` (stereo not shown) [Prilocaine hydrochloride] has a fold induction at 50 µM (E. coli; [3]) of 0.9, a fold induction at 50 µM (E. faecium; [4]) of 0.9 and a fold induction at 50 µM [1, 5] of 0.9. The fold induction at 50 µM (K. pneumoniae; [6]) was 0.7, the fold induction at 50 µM (P. aeruginosa; [7]) was 0.9 and the fold induction at 50 µM [2, 8] was 0.8. For the same compound, the fold induction at 50 µM (E. cloacae; [9]) was 1.3.

Compound `CCC1(c2ccccc2)C(=O)NCNC1=O` [Primidone] has a fold induction at 50 µM (E. coli; read-out: AK-based Prestwick Library Screening Results, E. coli (fold increase in extracellular AK activity)) of 1, a fold induction at 50 µM (E. faecium; [10]) of 0.9 and a fold induction at 50 µM [1, 11] of 1.2. The fold induction at 50 µM (K. pneumoniae; [12]) was 0.9, the fold induction at 50 µM (P. aeruginosa; [13]) was 1.2 and the fold induction at 50 µM [2, 14] was 1.3. For the same compound, the fold induction at 50 µM (E. cloacae; [15]) was 1.8.

In the case of `CCCC(C(=O)OCCN(CC)CC)(c1ccccc1)c1ccccc1` [Proadifen hydrochloride], the fold induction at 50 µM (E. coli; 50 μM final drug concentration, cutoff for positive-scoring molecules 3-fold increase, read-out: AK-based Prestwick Library Screening Results, E. coli (fold increase in extracellular AK activity)) was 1.2, the fold induction at 50 µM (E. faecium; [10]) was 1.1 and the fold induction at 50 µM [1, 11] was 1.1. For the same compound, the fold induction at 50 µM (K. pneumoniae; [12]) was 0.8, the fold induction at 50 µM (P. aeruginosa; [13]) was 1.1 and the fold induction at 50 µM [2, 14] was 0.8. The fold induction at 50 µM (E. cloacae; [15]) was 1.7.

With `CCCN(CCC)S(=O)(=O)c1ccc(C(=O)O)cc1` [Probenecid] the fold induction at 50 µM (E. coli; [16]) was 1.4, the fold induction at 50 µM (E. faecium; [17]) was 1 and the fold induction at 50 µM [1, 18] was 1.3. It also gave a fold induction at 50 µM (K. pneumoniae; [19]) of 1.1, a fold induction at 50 µM (P. aeruginosa; [20]) of 1.2 and a fold induction at 50 µM [2, 21] of 1. The fold induction at 50 µM (E. cloacae; [22]) was 1.4.

With `CC(C)(Sc1cc(C(C)(C)C)c(O)c(C(C)(C)C)c1)Sc1cc(C(C)(C)C)c(O)c(C(C)(C)C)c1` [Probucol] the fold induction at 50 µM (E. coli; [16]) was 1.1, the fold induction at 50 µM (E. faecium; [17]) was 0.9 and the fold induction at 50 µM [1, 18] was 1.4. For the same compound, the fold induction at 50 µM (K. pneumoniae; [19]) was 0.9, the fold induction at 50 µM (P. aeruginosa; [20]) was 1.1 and the fold induction at 50 µM [2, 21] was 0.6. For the same compound, the fold induction at 50 µM (E. cloacae; [22]) was 1.3.

`CCN(CC)CCNC(=O)c1ccc(N)cc1` [Procainamide hydrochloride] gave a fold induction at 50 µM (E. coli; planktonic E. coli, 50 μM final drug concentration, cutoff for positive-scoring molecules 3-fold increase, read-out: AK-based Prestwick Library Screening Results, E. coli (increase in extracellular AK activity)) of 0.6, a fold induction at 50 µM (E. faecium; planktonic E. faecium, cutoff for positive-scoring molecules 3-fold increase, read-out: AK-based Prestwick Library Screening Results, E. faecium (increase in extracellular AK activity)) of 1 and a fold induction at 50 µM ([1]; planktonic A. baumannii, cutoff for positive-scoring molecules 3-fold increase, read-out: AK-based Prestwick Library Screening Results, A. baumannii (increase in extracellular AK activity)) of 0.7. The fold induction at 50 µM (K. pneumoniae; planktonic K. pneumoniae, cutoff for positive-scoring molecules 3-fold increase, read-out: AK-based Prestwick Library Screening Results, K. pneumoniae (increase in extracellular AK activity)) was 0.6, the fold induction at 50 µM (P. aeruginosa; planktonic P. aeruginosa, cutoff for positive-scoring molecules 3-fold increase, read-out: AK-based Prestwick Library Screening Results, P. aeruginosa (increase in extracellular AK activity)) was 0.6 and the fold induction at 50 µM ([2]; planktonic S. aureus, cutoff for positive-scoring molecules 3-fold increase, read-out: AK-based Prestwick Library Screening Results, S. aureus (increase in extracellular AK activity)) was 0.6. The fold induction at 50 µM (E. cloacae; planktonic E. cloacae, cutoff for positive-scoring molecules 3-fold increase, read-out: AK-based Prestwick Library Screening Results, E. cloacae (increase in extracellular AK activity)) was 0.9.

Work on `CCN(CC)CCOC(=O)c1ccc(N)cc1` [Procaine hydrochloride] yielded a fold induction at 50 µM (E. coli; [3]) of 1.2, a fold induction at 50 µM (E. faecium; [4]) of 0.9 and a fold induction at 50 µM [1, 5] of 1.1. The fold induction at 50 µM (K. pneumoniae; [6]) was 1, the fold induction at 50 µM (P. aeruginosa; [7]) was 1 and the fold induction at 50 µM [2, 8] was 1.2. For the same compound, the fold induction at 50 µM (E. cloacae; [9]) was 1.4.

`CNNCc1ccc(C(=O)NC(C)C)cc1` [Procarbazine hydrochloride] showed a fold induction at 50 µM (E. coli; planktonic E. coli, 50 μM final drug concentration, positive cutoff 3-fold increase, read-out: AK-based Prestwick library screening result, E. coli (fold increase in extracellular AK activity)) of 1, a fold induction at 50 µM (E. faecium; planktonic E. faecium, positive cutoff 3-fold increase, read-out: AK-based Prestwick library screening result, E. faecium (fold increase in extracellular AK activity)) of 1 and a fold induction at 50 µM ([1]; planktonic A. baumannii, positive cutoff 3-fold increase, read-out: AK-based Prestwick library screening result, A. baumannii (fold increase in extracellular AK activity)) of 1.1. For the same compound, the fold induction at 50 µM (K. pneumoniae; planktonic K. pneumoniae, positive cutoff 3-fold increase, read-out: AK-based Prestwick library screening result, K. pneumoniae (fold increase in extracellular AK activity)) was 1.1, the fold induction at 50 µM (P. aeruginosa; planktonic P. aeruginosa, positive cutoff 3-fold increase, read-out: AK-based Prestwick library screening result, P. aeruginosa (fold increase in extracellular AK activity)) was 0.9 and the fold induction at 50 µM ([2]; planktonic S. aureus, positive cutoff 3-fold increase, read-out: AK-based Prestwick library screening result, S. aureus (fold increase in extracellular AK activity)) was 1.1. For the same compound, the fold induction at 50 µM (E. cloacae; planktonic E. cloacae, positive cutoff 3-fold increase, read-out: AK-based Prestwick library screening result, E. cloacae (fold increase in extracellular AK activity)) was 1.7.
